Our source for the EBV seroprevalence values is US6669939B1, “(Poly)peptides which represent the epitopes of the human herpes virus type 8” (Biotrin International Properties Limited, priority 1998, dated 2003).

This assay concerns anti-EBV antibodies. Briefly: ELISA with EBV control peptide, comparing antibody titers against HHV-8 and EBV. Type of assay: binding, human. Here is the method: Various control panels as well as control peptides were used to test the specificity of the HHV-8 antibody ELISA. Using an EBV control peptide (cf. table 2), analyses were carried out to compare antibody titers against HHV-8 and EBV (a closely related herpesvirus). In 56 out of 64 cases the observed antibody titers were at least 30% divergent; the EBV seroprevalence was 86% with HIV-positive patients and 72% with the controls.
(In general: ELISA stands for enzyme-linked immunosorbent assay.)

The substance “S G S G Q E P P A P Q A P I (SGSGQEPPAPQAPI; Epstein-Barr virus) [EBV control peptide, control peptide, Epstein-Barr virus strain B95-8, EBNA 6, position 100695-100724, with SGSG spacer]” had an EBV seroprevalence (HIV-positive patients) of 86% and an EBV seroprevalence (controls) of 72%.
